Source: patent US20250171468A1, “PHENOXIDO COPPER COMPLEXES AND METHODS FOR USING THEM IN THE TREATMENT OF CANCER” (UNIVERSITY OF LOUISIANA LAFAYETTE, priority 2023, published 2025)

What was measured:
A2780 cells [1] = assay: Cell cycle analysis by flow cytometry; type: cell-based, human; conditions: A2780, 24 h; 4 and 6 at 3 μM, 7 at 15 μM, cisplatin at 19 μM
Procedure: Similar cellular effects were described for a number of copper(II) complexes previously for a number of copper(II) complexes involving various ligands [40-43.]
The A2780 cells (Sigma, 93112519-1VL) were cultivated according to the producer's instructions and seeded at the concentration of 10^4 cells/well in 96-wells. […] After 24 h, the cells were washed once with PBS (0.1 M, pH 7.4) and cell cycle analysis was performed according to the protocol based on BD Cycletest™ Plus DNA kit (Becton Dickinson, USA). Measurements were performed using BD FACSVerse flow cytometer (Becton Dickinson, USA) in three independent experiments, each done in duplicate, while at least 5×10^3 events were recorded for each sample.

A2780 cells [2] = assay: Cell death induction, Annexin V / propidium iodide flow cytometry; type: cell-based, human; conditions: A2780, 24 h; applied at concentration causing 50% decrease in proliferation
Procedure: The induction of cell death in A2780 cancer cells was monitored by flow cytometry. Three types of cells were identified by incubation with Annexin V antibody and propidium iodide (PI). The normal cells were Annexin V and PI negative.
(§1) Both assays were performed according to the manufacturers' protocols with one modification in caspase induction assay, which was the use of CellEvent™ Caspase-3/7 Green Detection Reagent only for detection of Caspase-3/7 activation. […] After the 24 h incubation period, cells were washed once with PBS (0.1 M, pH 7.4), detached by trypsinization (0.25% trypsin-EDTA (Gibco™), resuspended in 500 L of culture medium and divided into two separate samples. The first sample was used in the apoptosis assay and the second one was used to detect the activation of caspases 3/7 in A2780 cells. The samples were analyzed using the BD FACSVerse flow cytometer (Becton Dickinson, USA) in three separate experiments, while at least 10^4 events were recorded for each sample prepared in duplicates.

[3] = tested on: caspases 3/7 in A2780 cells; assay: Activation of effector caspases 3/7, flow cytometry; type: cell-based, human; conditions: A2780, 24 h incubation, IC50 concentrations
Procedure: To assess the participation of apoptosis on the cell death induced by the studied complexes, the activity of effector caspases 3/7 in A2780 cells incubated with the tested compounds was determined by flow cytometry. […] This unequivocally means that the cell death they induce proceeds via a mechanism independent from caspases.
as §1

A2780 cells [4] = assay: Autophagy induction, CYTO-ID kit flow cytometry; type: cell-based, human; conditions: A2780, 24 h; 4 and 6 at 3 μM, 7 at 15 μM, cisplatin at 19 μM
Procedure: To further explore the mechanisms involved in the cellular death of A2780 cells induced by the complexes, the autophagy progression was monitored in the cells using a specific flow cytometry-based kit. The autophagy signaling caused by the incubation with the tested compounds was compared to the untreated control group of cells and positive control group, which included cells treated with the chloroquine/rapamycin (CQ/Rapamycin) mixture inducing strong autophagic response in cells. […] In fact, autophagy might have a dual role in cancer as it can help the cancer cells to overcome metabolic stress (hypoxia, lack of nutrients) and suppress tumor progression through degradation of oncogenic proteins. Many anticancer agents, including the copper(II) complexes, which mechanism of action includes different cellular processes, such as inhibition of mTORC1, proteasome inhibition, inhibition of histone deacetylases or topoisomerases, induce autophagy. On the other hand, the apoptosis is evidently a main route of cell death in the A2780 cells caused by complex 7.
The analyses were performed according to the manufacturer's protocol on A2780 cells pretreated for 24 h by the tested compounds. […] The samples were analyzed using the BD FACSVerse flow cytometer (Becton Dickinson, USA) in three separate experiments, while at least 10^4 events were recorded for each sample prepared in duplicates. […]

A2780 cells [5] = assay: Intracellular ROS/superoxide production; type: cell-based, human; conditions: A2780, 24 h
Procedure: The effects of the tested compounds on the ROS production in A2780 cells and on the progression of the oxidative stress caused by the known pro-oxidant agent (pyocyanin) were observed by means of flow cytometry using a specific kit of intracellular ROS, and superoxide detection, respectively. […] Approximately the same pattern was identified also in case of superoxide production (FIG. 16).
The oxidative stress analysis was performed using ROS-ID® Total ROS/Superoxide detection kit (Enzo Life Sciences, US) according to the manufacturer protocol. The samples were analyzed in triplicates on multimode microplate reader Infinite PRO M200 (Tecan, Switzerland). The control samples contained 500 iM pyocyanin.

A2780 cells [6] = assay: Mitochondrial membrane potential analysis; type: cell-based, human; conditions: A2780, 24 h incubation, IC50 concentrations
Procedure: In order to get more insight about the mechanisms involved in the induction of cell death in the A2780 cells treated with the complexes 4, 6, and 7, the detection of mitochondrial membrane potential in the cells was performed by means of flow cytometric analysis using a specific kit. […] Both these agents induced the apoptosis via the intrinsic route of apoptosis activation, characterized by the efflux of cytochrome c from the damaged mitochondria to the cytoplasm of the cells, followed by the formation of […] and activation of effector caspases 3/7 leading to the destruction of cell cytoskeleton and fragmentation of DNA. […] The major suspect in this case is the induction of cuproptosis, a relatively newly discovered mechanism of cell death caused by copper, which is characterized by the high intracellular levels of copper, low levels of apoptosis, yet substantial antiproliferative effects on the target cells. […]
The cells were washed with PBS, detached by trypsin treatment, isolated by centrifugation, and resuspended in 500 iL of culture medium. […] The samples were measured in triplicates, while at least 10^4 events were recorded using BD FACSVerse flow cytometer (Becton Dickinson, USA). […]

[7] = tested on: all tested cancer cell lines; conditions: cited from earlier work

SMILES: N.N.[Cl][Pt][Cl] [Cisplatin, cisplatin, reference compound]
- cell-cycle modification (A2780 cells [1]): significant arrest of cells in S phase
- induction of cell death (apoptosis and necrosis) (A2780 cells [2]): most intensive induction of cell death processes
- activation of effector caspases 3/7 [3]: significant activation
- activation of autophagy (A2780 cells [4]): significant activation of autophagy
- promotion of oxidative stress (ROS production) by the compound itself (A2780 cells [5]; no pyocyanin pretreatment): none of the tested complexes 4, 6, and 7 nor cisplatin showed any significant abilities to promote the oxidative stress by themselves
- effect on oxidative stress caused by pyocyanin pretreatment (A2780 cells [5]; pretreated with pyocyanin): only slight antioxidative effects
- mitochondrial membrane damage (A2780 cells [6]): impairment of the mitochondrial membrane function/permeability

SMILES: [Cu+2].[O-]c1cccc2cccnc12.[O-]c1cccc2cccnc12 [[Cu(8-HQ)2]]
- IC50 compared with cisplatin [7]: less than that of cisplatin

SMILES: [Cu+2].[O-]c1c(I)cc(Cl)c2cccnc12.[O-]c1c(I)cc(Cl)c2cccnc12 [[Cu(CQ)2]]
- IC50 compared with cisplatin [7]: less than that of cisplatin

SMILES: CCN(CC)C(=S)[S-].CCN(CC)C(=S)[S-].[Cu+2] [[Cu(DDC)2]]
- IC50 compared with cisplatin [7]: less than that of cisplatin

SMILES: On1ccccc1=S.On1ccccc1=S.[Cu] [[Cu(Pyr)2]]
- IC50 compared with cisplatin [7]: less than that of cisplatin
